According to ChEMBL document CHEMBL3351452, “Chemical synthesis, cytotoxicity, selectivity and bioavailability of 5α-androstane-3α,17β-diol derivatives” (Bioorg Med Chem, 2014):

Legend:
[1] = Cytotoxicity against human peripheral blood lymphocytes assessed as assessed as CD4+/CD8+ […] ratio at 5 uM after 5 days by flow cytometry analysis (reference value: 2.7%); format: cell-based; details: lymphocyte, 120 h
[2] = Cytotoxicity against human peripheral blood lymphocytes assessed as assessed as CD4+/CD8+ […] ratio at 1 uM after 5 days by flow cytometry analysis (reference value: 2.7%); format: cell-based; details: lymphocyte, 120 h
Cytochrome P450 2D6 = Cytochrome P450 2D6 (Homo sapiens, UniProt P10635); assay: Inhibition of CYP2D6 (unknown origin) using AMMC by fluorescence assay; format: ADME
[3] = Cytotoxicity against human peripheral blood lymphocytes assessed as assessed as CD4+/CD8+ […] ratio at 50 uM after 5 days by flow cytometry analysis (reference value: 2.7%); format: cell-based; details: lymphocyte, 120 h
T47D = assay: Antiproliferative activity against human T47D cells assessed as reduction in cell growth after 24 hrs by MTS assay; format: functional, cell-based
[4] = Cytotoxicity against human peripheral blood lymphocytes assessed as assessed as CD3+ T cells population at 0.1 uM after 5 days by flow cytometry analysis (reference value: 73.8%); format: cell-based; details: lymphocyte, 120 h
[5] = Cytotoxicity against human peripheral blood lymphocytes assessed as assessed as CD3+/CD8 T cells population at 0.1 uM after 5 days by flow cytometry analysis (reference value: 15.2 %); format: cell-based; details: lymphocyte, 120 h
[6] = Cytotoxicity against human peripheral blood lymphocytes assessed as assessed as CD4+/CD8+ […] ratio at 10 uM after 5 days by flow cytometry analysis (reference value: 2.7 %); format: cell-based; details: lymphocyte, 120 h
LNCaP = assay: Antiproliferative activity against human LNCAP cells assessed as reduction in cell growth after 24 hrs by MTS assay; format: functional, cell-based
[7] = Cytotoxicity against human peripheral blood lymphocytes assessed as assessed as CD3+/CD4+ T cells population at 5 uM after 5 days by flow cytometry analysis (reference value: 41.4%); format: cell-based; details: lymphocyte, 120 h
[8] = Cytotoxicity against human peripheral blood lymphocytes assessed as assessed as CD3+ T cells population at 1 uM after 5 days by flow cytometry analysis (reference value: 73.8%); format: cell-based; details: lymphocyte, 120 h
[9] = Cytotoxicity against human peripheral blood lymphocytes assessed as assessed as CD3+/CD4+ T cells population at 1 uM after 5 days by flow cytometry analysis (reference value: 41.4%); format: cell-based; details: lymphocyte, 120 h
[10] = Cytotoxicity against human peripheral blood lymphocytes assessed as assessed as CD4+/CD8+ […] ratio at 0.1 uM after 5 days by flow cytometry analysis (reference value: 2.7%); format: cell-based; details: lymphocyte, 120 h
[11] = Cytotoxicity against human peripheral blood lymphocytes assessed as assessed as CD3+/CD4+ T cells population at 10 uM after 5 days by flow cytometry analysis (reference value: 41.4 %); format: cell-based; details: lymphocyte, 120 h
[12] = Cytotoxicity against human peripheral blood lymphocytes assessed as assessed as CD19+ B cells population at 50 uM after 5 days by flow cytometry analysis (reference value: 2%); format: cell-based; details: lymphocyte, 120 h
[13] = Cytotoxicity against human peripheral blood lymphocytes assessed as assessed as CD3+/CD8 T cells population at 10 uM after 5 days by flow cytometry analysis (reference value: 15.2 %); format: cell-based; details: lymphocyte, 120 h
[14] = Cytotoxicity against human peripheral blood lymphocytes assessed as assessed as CD19+ B cells population at 10 uM after 5 days by flow cytometry analysis (reference value: 2%); format: cell-based; details: lymphocyte, 120 h
[15] = Cytotoxicity against human peripheral blood lymphocytes assessed as assessed as CD3+/CD4+ T cells population at 50 uM after 5 days by flow cytometry analysis (reference value: 41.4%); format: cell-based; details: lymphocyte, 120 h
[16] = Cytotoxicity against human peripheral blood lymphocytes assessed as assessed as CD19+ B cells population at 5 uM after 5 days by flow cytometry analysis (reference value: 2%); format: cell-based; details: lymphocyte, 120 h
[17] = Plasma concentration in Sprague-Dawley rat at 2.3 mg/kg, sc measured at 3 hrs by LC/MS/MS analysis; format: ADME, organism-based; parameters: dose 2.3 mg/kg, route subcutaneous
[18] = Cytotoxicity against human peripheral blood lymphocytes assessed as assessed as CD3+ T cells population at 5 uM after 5 days by flow cytometry analysis (reference value: 73.8%); format: cell-based; details: lymphocyte, 120 h
[19] = Cytotoxicity against human peripheral blood lymphocytes assessed as assessed as CD3+/CD4+ T cells population at 0.1 uM after 5 days by flow cytometry analysis (reference value: 41.4%); format: cell-based; details: lymphocyte, 120 h
[20] = Cytotoxicity against human peripheral blood lymphocytes assessed as assessed as CD19+ B cells population at 30 uM after 5 days by flow cytometry analysis (reference value: 2%); format: cell-based; details: lymphocyte, 120 h
[21] = Cytotoxicity against human peripheral blood lymphocytes assessed as assessed as CD19+ B cells population at 1 uM after 5 days by flow cytometry analysis (reference value: 2%); format: cell-based; details: lymphocyte, 120 h
[22] = Cytotoxicity against human peripheral blood lymphocytes assessed as assessed as CD3+/CD8 T cells population at 1 uM after 5 days by flow cytometry analysis (reference value: 15.2%); format: cell-based; details: lymphocyte, 120 h
Cytochrome P450 3A4 = Cytochrome P450 3A4 (Homo sapiens, UniProt P08684); assay: Inhibition of CYP3A4 (unknown origin) using AMMC by fluorescence assay; format: ADME
[23] = Cytotoxicity against human peripheral blood lymphocytes assessed as assessed as CD3+/CD8 T cells population at 50 uM after 5 days by flow cytometry analysis (reference value: 15.2 %); format: cell-based; details: lymphocyte, 120 h
[24] = Cytotoxicity against mouse WEHI13 cells assessed as cell proliferation after 48 hrs by MTT assay; format: cell-based; details: WEHI13, 48 h
[25] = Cytotoxicity against human peripheral blood lymphocytes assessed as assessed as CD3+/CD8 T cells population at 30 uM after 5 days by flow cytometry analysis (reference value: 15.2 %); format: cell-based; details: lymphocyte, 120 h
HL-60 = assay: Antiproliferative activity against human HL-60 cells assessed as reduction in cell growth after 24 hrs by MTS assay; format: functional, cell-based; details: HL-60, 24 h
[26] = Cytotoxicity against human peripheral blood lymphocytes assessed as assessed as CD3+/CD8 T cells population at 5 uM after 5 days by flow cytometry analysis (reference value: 15.2 %); format: cell-based; details: lymphocyte, 120 h
[27] = Cytotoxicity against human peripheral blood lymphocytes assessed as assessed as CD3+ T cells population at 50 uM after 5 days by flow cytometry analysis (reference value: 73.8%); format: cell-based; details: lymphocyte, 120 h
MCF7 = assay: Antiproliferative activity against human MCF7 cells assessed as reduction in cell growth after 24 hrs by MTS assay; format: functional, cell-based; details: MCF7, 24 h
[28] = Cytotoxicity against human peripheral blood lymphocytes assessed as assessed as CD19+ B cells population at 0.1 uM after 5 days by flow cytometry analysis (reference value: 2%); format: cell-based; details: lymphocyte, 120 h
[29] = Plasma concentration in Sprague-Dawley rat at 2.3 mg/kg, sc measured at 12 hrs by LC/MS/MS analysis; format: ADME, organism-based; parameters: dose 2.3 mg/kg, route subcutaneous
[30] = Cytotoxicity against human peripheral blood lymphocytes assessed as assessed as CD3+ T cells population at 10 uM after 5 days by flow cytometry analysis (reference value: 73.8%); format: cell-based; details: lymphocyte, 120 h
[31] = Cytotoxicity against human peripheral blood lymphocytes assessed as assessed as CD3+/CD4+ T cells population at 30 uM after 5 days by flow cytometry analysis (reference value: 41.4%); format: cell-based; details: lymphocyte, 120 h
[32] = Cytotoxicity against human peripheral blood lymphocytes assessed as assessed as CD4+/CD8+ […] ratio at 30 uM after 5 days by flow cytometry analysis (reference value: 2.7%); format: cell-based; details: lymphocyte, 120 h
[33] = Cytotoxicity against human peripheral blood lymphocytes assessed as assessed as CD3+ T cells population at 30 uM after 5 days by flow cytometry analysis (reference value: 73.8%); format: cell-based; details: lymphocyte, 120 h

Chain of Cytochrome P450 3A4 (P08684 whole entry): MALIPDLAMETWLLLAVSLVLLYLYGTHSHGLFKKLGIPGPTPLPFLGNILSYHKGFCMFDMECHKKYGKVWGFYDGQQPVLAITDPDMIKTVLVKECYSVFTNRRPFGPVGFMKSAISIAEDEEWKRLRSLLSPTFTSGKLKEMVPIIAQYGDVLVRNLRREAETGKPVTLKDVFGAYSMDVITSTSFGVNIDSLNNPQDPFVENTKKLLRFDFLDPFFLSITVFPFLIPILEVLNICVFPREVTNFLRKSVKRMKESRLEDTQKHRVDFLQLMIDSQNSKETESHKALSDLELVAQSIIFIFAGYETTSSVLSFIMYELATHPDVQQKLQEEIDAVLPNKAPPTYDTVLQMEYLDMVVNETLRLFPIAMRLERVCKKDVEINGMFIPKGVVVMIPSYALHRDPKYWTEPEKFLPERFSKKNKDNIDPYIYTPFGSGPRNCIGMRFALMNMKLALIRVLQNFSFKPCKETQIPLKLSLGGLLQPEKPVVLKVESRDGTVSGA
Chain of Cytochrome P450 2D6 (P10635 whole entry): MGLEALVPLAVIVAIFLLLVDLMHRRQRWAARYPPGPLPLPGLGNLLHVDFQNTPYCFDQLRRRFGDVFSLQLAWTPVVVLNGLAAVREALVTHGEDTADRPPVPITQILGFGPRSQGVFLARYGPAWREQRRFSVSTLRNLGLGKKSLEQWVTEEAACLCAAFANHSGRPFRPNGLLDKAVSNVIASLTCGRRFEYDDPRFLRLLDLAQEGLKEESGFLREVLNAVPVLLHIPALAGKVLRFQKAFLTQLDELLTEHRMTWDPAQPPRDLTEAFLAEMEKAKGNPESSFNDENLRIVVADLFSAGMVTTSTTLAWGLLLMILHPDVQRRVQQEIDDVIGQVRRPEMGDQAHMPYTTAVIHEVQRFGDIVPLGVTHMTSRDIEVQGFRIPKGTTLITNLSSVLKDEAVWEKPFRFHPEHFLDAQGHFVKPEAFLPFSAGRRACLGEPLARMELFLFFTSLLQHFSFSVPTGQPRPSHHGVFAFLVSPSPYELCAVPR

C#C[C@]1(O)CC[C@H]2[C@@H]3CC[C@H]4C[C@H](O)[C@@H](N5CCN(C(=O)[C@@H]6CCCN6C(=O)c6ccc7ccccc7n6)CC5)C[C@]4(C)[C@H]3CC[C@@]21C
Activity [1]: 6%
Activity [2]: 5%
IC50 (Cytochrome P450 2D6): 25 µM
Activity [3]: 231%
IC50 (T47D): 0.1 µM
Activity [4]: 57.5%
Activity [5]: 12.1%
Activity [6]: 11.3%
IC50 (LNCaP): 2 µM
Activity [7]: 19.5%
Activity [8]: 53.7%
Activity [9]: 16.6%
Activity [10]: 1.4%
Activity [11]: 18.4%
Activity [12]: 1.8%
Activity [13]: 1.6%
Activity [14]: 1.4%
Activity [15]: 23.1%
Activity [16]: 1.7%
concentration at 3 h [17]: 151 ng/mL
Activity [18]: 59.1%
Activity [19]: 16.9%
Activity [20]: 1.9%
Activity [21]: 2.2%
Activity [22]: 3.3%
IC50 (Cytochrome P450 3A4): 3.8 µM
Activity [23]: 0.1%
IC50 [24]: 1.1 µM
Activity [25]: 0.1%
IC50 (HL-60): 0.1 µM
Activity [26]: 3.3%
Activity [27]: 62.1%
IC50 (MCF7): 0.1 µM
Activity [28]: 1.1%
concentration at 12 h [29]: 15.7 ng/mL
Activity [30]: 55.1%
Activity [31]: 21%
Activity [32]: 216%
Activity [33]: 58.5%
